Test results: ChEMBL document CHEMBL5532720, “A Potent Solution for Tumor Growth and Angiogenesis Suppression via an ELR+CXCL-CXCR1/2 Pathway Inhibitor” (ACS Med Chem Lett, 2024)
Converted amounts (≈) assume the structure as drawn. The source made the active and inactive calls. The calls are words filed in the database; no cut-off is given here.

Columns and labels:
[1] = Stability in human microsomes assessed as compound remaining measured after 1 hrs; type: ADME, Microsome; conditions: read-out: Stability
[2] = target: Aurora kinase B (Homo sapiens) (UniProt Q96GD4); experiment: Inhibition of AURKB (unknown origin) at 10 uM in presence of ATP at Km concentration
[3] = target: Ephrin type-A receptor 2 (Homo sapiens) (UniProt P29317); experiment: Inhibition of EPHA2 (unknown origin) at 10 uM in presence of ATP at Km concentration
Chain of Ephrin type-A receptor 2 (Homo sapiens) (P29317 whole entry): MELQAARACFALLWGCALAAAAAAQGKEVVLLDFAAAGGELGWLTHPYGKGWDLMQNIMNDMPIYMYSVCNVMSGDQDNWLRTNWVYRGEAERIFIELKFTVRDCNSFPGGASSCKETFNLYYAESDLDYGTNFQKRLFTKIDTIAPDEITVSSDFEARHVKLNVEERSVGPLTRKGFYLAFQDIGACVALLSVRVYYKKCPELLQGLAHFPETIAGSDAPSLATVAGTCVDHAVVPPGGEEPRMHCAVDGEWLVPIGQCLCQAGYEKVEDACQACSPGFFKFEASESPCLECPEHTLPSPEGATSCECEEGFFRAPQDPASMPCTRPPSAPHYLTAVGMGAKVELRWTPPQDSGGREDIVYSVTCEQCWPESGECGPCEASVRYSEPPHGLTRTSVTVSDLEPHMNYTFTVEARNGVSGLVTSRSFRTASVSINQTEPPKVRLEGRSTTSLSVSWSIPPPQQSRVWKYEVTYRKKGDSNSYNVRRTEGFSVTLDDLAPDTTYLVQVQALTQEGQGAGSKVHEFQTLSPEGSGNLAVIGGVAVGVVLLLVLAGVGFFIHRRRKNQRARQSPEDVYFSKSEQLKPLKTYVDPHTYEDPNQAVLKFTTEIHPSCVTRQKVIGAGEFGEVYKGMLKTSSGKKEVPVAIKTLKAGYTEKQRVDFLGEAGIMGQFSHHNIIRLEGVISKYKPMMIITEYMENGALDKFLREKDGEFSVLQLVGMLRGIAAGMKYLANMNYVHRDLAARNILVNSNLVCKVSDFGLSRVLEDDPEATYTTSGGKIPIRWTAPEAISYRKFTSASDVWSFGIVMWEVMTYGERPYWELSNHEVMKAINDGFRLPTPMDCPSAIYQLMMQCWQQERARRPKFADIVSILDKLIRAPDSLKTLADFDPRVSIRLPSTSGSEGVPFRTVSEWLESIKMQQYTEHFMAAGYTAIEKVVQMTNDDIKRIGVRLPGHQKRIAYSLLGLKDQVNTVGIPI

[4] = target: Serine/threonine-protein kinase SIK3 (Homo sapiens) (UniProt Q9Y2K2); experiment: Inhibition of SIK3 (unknown origin) at 10 uM in presence of ATP at Km concentration
Chain of Serine/threonine-protein kinase SIK3 (Homo sapiens) (Q9Y2K2 whole entry, looked up): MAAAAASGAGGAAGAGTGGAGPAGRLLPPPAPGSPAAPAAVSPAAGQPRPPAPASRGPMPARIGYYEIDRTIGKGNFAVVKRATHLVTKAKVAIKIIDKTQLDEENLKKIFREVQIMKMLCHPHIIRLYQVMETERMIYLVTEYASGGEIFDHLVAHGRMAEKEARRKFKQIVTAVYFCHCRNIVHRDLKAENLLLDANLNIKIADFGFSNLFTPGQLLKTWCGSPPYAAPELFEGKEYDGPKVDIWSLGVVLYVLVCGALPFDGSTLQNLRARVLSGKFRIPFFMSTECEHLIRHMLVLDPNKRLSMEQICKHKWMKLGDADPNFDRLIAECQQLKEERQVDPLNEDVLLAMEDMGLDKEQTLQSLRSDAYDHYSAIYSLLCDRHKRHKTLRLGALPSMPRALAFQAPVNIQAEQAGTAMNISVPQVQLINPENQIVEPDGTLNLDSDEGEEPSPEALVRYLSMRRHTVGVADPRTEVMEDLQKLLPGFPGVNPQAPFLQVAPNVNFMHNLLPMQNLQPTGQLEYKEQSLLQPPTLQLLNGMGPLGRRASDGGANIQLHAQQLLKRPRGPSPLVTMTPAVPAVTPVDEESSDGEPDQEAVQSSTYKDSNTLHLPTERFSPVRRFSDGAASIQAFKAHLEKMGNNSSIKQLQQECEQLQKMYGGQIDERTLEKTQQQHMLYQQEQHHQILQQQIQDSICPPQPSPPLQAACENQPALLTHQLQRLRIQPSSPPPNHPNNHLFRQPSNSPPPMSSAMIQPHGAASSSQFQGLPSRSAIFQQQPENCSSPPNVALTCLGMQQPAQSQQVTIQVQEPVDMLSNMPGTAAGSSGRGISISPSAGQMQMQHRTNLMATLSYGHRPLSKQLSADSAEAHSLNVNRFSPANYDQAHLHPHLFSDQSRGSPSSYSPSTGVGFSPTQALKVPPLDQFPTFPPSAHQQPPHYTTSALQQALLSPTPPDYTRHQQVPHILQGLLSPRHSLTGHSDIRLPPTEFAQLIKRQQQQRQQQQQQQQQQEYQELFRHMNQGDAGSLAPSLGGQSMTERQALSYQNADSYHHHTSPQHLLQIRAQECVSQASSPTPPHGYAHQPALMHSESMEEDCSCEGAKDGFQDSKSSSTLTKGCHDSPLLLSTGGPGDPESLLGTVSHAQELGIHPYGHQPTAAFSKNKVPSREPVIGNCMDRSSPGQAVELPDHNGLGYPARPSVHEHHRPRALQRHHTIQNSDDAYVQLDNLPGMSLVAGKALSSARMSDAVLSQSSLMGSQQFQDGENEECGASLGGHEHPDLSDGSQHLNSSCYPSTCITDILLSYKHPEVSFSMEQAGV

[5] = Tmax in NOD SCID mouse at 200 mg/kg, po; type: ADME, organism-based; conditions: in vivo
[6] = target: Mitogen-activated protein kinase 15 (Homo sapiens) (UniProt Q8TD08); experiment: Inhibition of MAPK15 (unknown origin) at 10 uM in presence of ATP at Km concentration
[7] = Toxicity in athymic nude mouse xenografted with human 786-0 cells assessed as discernible signs at 100 mg/kg, po administered twice daily via gavage for 28 days; type: organism-based; conditions: in vivo, 672 h, time 28 day
[8] = Aqueous solubility of compound in SIF at pH 7.5; type: ADME
A498 [9] = experiment: Antimetastatic activity against human A498 cells labeled with vybrant DiD cell-labeling solution xenografted in zebrafish embryo assessed as fold reduction in metastasis area at 1 uM pre-infected with cells for 24 hrs followed by compound addition and measured after 48 hrs by fluorescence microscopic imaging analysis; type: functional
[10] = AUC (0 to infinity) in NOD SCID mouse at 50 mg/kg, po; type: ADME, organism-based; conditions: in vivo
[11] = Aqueous solubility of compound in water; type: physicochemical
[12] = Oral bioavailability in NOD SCID mouse at 100 mg/kg; type: ADME, organism-based; conditions: in vivo
[13] = target: cGMP-dependent protein kinase 1 (Homo sapiens) (UniProt Q13976); experiment: Inhibition of PRKG1 (unknown origin) at 10 uM in presence of ATP at Km concentration
[14] = Cmax in NOD SCID mouse at 200 mg/kg, po; type: ADME, organism-based; conditions: in vivo
[15] = target: Ephrin type-B receptor 2 (Homo sapiens) (UniProt P29323); experiment: Inhibition of EPHB2 (unknown origin) at 10 uM in presence of ATP at Km concentration
[16] = target: Phosphorylase b kinase gamma catalytic chain, liver/testis isoform (Homo sapiens) (UniProt P15735); experiment: Inhibition of PHKG2 (unknown origin) at 10 uM in presence of ATP at Km concentration
Chain of Phosphorylase b kinase gamma catalytic chain, liver/testis isoform (Homo sapiens) (P15735 whole entry, canonical isoform): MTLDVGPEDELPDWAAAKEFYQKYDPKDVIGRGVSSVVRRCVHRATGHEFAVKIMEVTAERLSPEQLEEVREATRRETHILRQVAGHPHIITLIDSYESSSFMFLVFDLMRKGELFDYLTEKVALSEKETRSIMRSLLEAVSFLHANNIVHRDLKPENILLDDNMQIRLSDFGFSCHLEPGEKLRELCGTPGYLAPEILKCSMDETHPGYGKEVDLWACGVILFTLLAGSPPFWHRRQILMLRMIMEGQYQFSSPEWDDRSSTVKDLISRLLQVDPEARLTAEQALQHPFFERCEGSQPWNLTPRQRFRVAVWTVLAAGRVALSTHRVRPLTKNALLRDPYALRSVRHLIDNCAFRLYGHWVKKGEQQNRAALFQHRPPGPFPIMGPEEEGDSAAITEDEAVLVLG

[17] = target: Ribosomal protein S6 kinase alpha-2 (Homo sapiens) (UniProt Q15349); experiment: Inhibition of RPS6KA2 (unknown origin) at 10 uM in presence of ATP at Km concentration
Chain of Ribosomal protein S6 kinase alpha-2 (Homo sapiens) (Q15349 whole entry): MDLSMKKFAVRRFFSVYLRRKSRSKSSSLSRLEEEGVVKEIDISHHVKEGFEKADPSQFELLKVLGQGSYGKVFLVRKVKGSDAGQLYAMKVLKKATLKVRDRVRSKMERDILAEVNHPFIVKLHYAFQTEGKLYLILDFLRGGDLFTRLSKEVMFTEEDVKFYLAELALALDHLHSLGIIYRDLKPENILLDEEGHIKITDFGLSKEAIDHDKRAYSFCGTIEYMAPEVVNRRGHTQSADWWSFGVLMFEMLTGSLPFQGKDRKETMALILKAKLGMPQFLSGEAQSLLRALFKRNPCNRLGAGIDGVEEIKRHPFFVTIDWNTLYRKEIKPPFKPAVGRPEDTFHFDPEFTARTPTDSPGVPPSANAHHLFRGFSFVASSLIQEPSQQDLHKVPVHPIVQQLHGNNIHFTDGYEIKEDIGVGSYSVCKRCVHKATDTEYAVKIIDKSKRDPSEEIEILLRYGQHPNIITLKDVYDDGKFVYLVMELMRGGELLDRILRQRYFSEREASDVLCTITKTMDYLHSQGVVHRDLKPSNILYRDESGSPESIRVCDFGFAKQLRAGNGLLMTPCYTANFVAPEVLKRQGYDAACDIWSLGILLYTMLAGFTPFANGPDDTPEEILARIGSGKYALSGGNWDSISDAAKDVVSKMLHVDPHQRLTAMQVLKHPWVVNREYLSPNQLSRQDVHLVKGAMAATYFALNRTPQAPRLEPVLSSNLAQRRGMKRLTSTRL

[18] = target: Inhibitor of nuclear factor kappa-B kinase subunit beta (Homo sapiens) (UniProt O14920); experiment: Inhibition of IKBKB (unknown origin) at 10 uM in presence of ATP at Km concentration
RCC4 = experiment: Antiproliferative activity against human RCC4 cells incubated for 48 hrs by XTT assay; type: functional, cell-based; conditions: RCC4, 48 h
[19] = target: Ephrin type-B receptor 4 (Homo sapiens) (UniProt P54760); experiment: Inhibition of EPHB4 (unknown origin) at 10 uM in presence of ATP at Km concentration
[20] = Stability in mouse hepatocytes assessed as half-life; type: ADME, cell-based, Hepatocyte
[21] = target: Inactive tyrosine-protein kinase PEAK1 (Homo sapiens) (UniProt Q9H792); experiment: Inhibition of PEAK1 (unknown origin) at 10 uM in presence of ATP at Km concentration
[22] = AUC (0 to infinity) in NOD SCID mouse at 100 mg/kg, po; type: ADME, organism-based; conditions: in vivo
[23] = test system: Cisplatin and radiotherapy resistant CAL33RR; experiment: Inhibition of cell invasion in human Cisplatin and radiotherapy resistant CAL33RR cells cultured as 3D spheroid at 5 uM measured after 7 days by light microscopic imaging analysis; type: functional, cell-based; conditions: time 7.0 day
[24] = Genotoxicity in Salmonella typhimurium TA98 upto 100 uM in absence of S9 fraction by Ames test; type: toxicity; conditions: salmonella enterica subsp. enterica serovar typhimurium, s9, 100 µM
[25] = Half-life in NOD SCID mouse at 200 mg/kg, po; type: ADME, organism-based; conditions: in vivo
[26] = Antiproliferative activity against human Sunitinib-resistant 786-R cells incubated for 48 hrs by XTT assay; type: functional, cell-based
[27] = target: TGF-beta receptor type-2 (Homo sapiens) (UniProt P37173); experiment: Inhibition of TGFBR2 (unknown origin) at 10 uM in presence of ATP at Km concentration
A498 [28] = experiment: Antimetastatic activity against human A498 cells labeled with vybrant DiD cell-labeling solution xenografted in zebrafish embryo assessed as inhibition of neovascularization by measuring decrease in fluorescence intensity of GFP labeled blood vessel at 1 uM incubated for 72 hrs by fluorescence microscopic imaging analysis; type: functional, cell-based
[29] = target: Mitogen-activated protein kinase kinase kinase 11 (Homo sapiens) (UniProt Q16584); experiment: Inhibition of MAP3K11 (unknown origin) at 10 uM in presence of ATP at Km concentration
Chain of Mitogen-activated protein kinase kinase kinase 11 (Homo sapiens) (Q16584 whole entry, looked up): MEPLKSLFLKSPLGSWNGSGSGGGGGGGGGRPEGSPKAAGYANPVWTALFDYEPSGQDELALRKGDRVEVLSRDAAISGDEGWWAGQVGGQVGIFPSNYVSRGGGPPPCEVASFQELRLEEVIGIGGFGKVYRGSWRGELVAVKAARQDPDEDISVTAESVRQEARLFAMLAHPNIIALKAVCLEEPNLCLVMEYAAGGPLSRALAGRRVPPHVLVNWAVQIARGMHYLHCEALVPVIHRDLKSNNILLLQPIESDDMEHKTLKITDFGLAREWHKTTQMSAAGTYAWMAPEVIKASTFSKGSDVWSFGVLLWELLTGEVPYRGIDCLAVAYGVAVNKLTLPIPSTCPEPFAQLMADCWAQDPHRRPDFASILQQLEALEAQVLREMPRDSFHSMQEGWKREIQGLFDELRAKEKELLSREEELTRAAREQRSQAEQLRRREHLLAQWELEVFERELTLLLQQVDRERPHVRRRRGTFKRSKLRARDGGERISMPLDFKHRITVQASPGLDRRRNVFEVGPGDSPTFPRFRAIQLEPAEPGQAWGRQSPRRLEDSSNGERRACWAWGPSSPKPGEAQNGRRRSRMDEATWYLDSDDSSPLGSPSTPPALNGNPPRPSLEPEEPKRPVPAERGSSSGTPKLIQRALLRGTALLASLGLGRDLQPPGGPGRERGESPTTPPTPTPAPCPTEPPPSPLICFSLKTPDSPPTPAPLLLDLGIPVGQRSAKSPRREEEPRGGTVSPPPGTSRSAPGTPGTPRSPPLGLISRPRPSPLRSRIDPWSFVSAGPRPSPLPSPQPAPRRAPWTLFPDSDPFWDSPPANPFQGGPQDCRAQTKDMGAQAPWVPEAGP

[30] = Stability in mouse plasma assessed as half-life; type: ADME, cell-free
CAL-33 = experiment: Antiproliferative activity against human CAL-33 cells incubated for 48 hrs by XTT assay; type: functional, cell-based; conditions: CAL-33, 48 h
[31] = Tmax in NOD SCID mouse at 100 mg/kg, po; type: ADME, organism-based; conditions: in vivo
[32] = Oral bioavailability in NOD SCID mouse at 50 mg/kg; type: ADME, organism-based; conditions: in vivo
A498 [33] = experiment: Inhibition of cell invasion in human A498 cells cultured as 3D spheroids at 5 uM measured after 7 days by light microscopic imaging analysis relative to control; type: functional; conditions: A498, 168 h, time 7 day
[34] = Stability in human plasma assessed as compound remaining measured after 120 mins; type: ADME, cell-free; conditions: read-out: Stability
[35] = target: Serine/threonine-protein kinase PLK1 (Homo sapiens) (UniProt P53350); experiment: Inhibition of PLK1 (unknown origin) at 10 uM in presence of ATP at Km concentration
[36] = target: Tyrosine-protein kinase receptor UFO (Homo sapiens) (UniProt P30530); experiment: Inhibition of AXL (unknown origin) at 10 uM in presence of ATP at Km concentration
A498 [37] = experiment: Inhibition of CXCL8-induced cell migration in human A498 cells at 0.5 uM incubated for 24 hrs by crystal violet staining based analysis relative to control; type: functional
[38] = target: Mitogen-activated protein kinase kinase kinase kinase 4 (Homo sapiens) (UniProt O95819); experiment: Inhibition of MAP4K4 (unknown origin) at 10 uM in presence of ATP at Km concentration
[39] = Toxicity in athymic nude mouse xenografted with human 786-0 cells assessed as effect on behavior at 100 mg/kg, po administered twice daily via gavage for 28 days; type: organism-based; conditions: in vivo, 672 h, time 28 day
[40] = target: G protein-coupled receptor kinase 5 (Homo sapiens) (UniProt P34947); experiment: Inhibition of GRK5 (unknown origin) at 10 uM in presence of ATP at Km concentration
Chain of G protein-coupled receptor kinase 5 (Homo sapiens) (P34947 whole entry, looked up): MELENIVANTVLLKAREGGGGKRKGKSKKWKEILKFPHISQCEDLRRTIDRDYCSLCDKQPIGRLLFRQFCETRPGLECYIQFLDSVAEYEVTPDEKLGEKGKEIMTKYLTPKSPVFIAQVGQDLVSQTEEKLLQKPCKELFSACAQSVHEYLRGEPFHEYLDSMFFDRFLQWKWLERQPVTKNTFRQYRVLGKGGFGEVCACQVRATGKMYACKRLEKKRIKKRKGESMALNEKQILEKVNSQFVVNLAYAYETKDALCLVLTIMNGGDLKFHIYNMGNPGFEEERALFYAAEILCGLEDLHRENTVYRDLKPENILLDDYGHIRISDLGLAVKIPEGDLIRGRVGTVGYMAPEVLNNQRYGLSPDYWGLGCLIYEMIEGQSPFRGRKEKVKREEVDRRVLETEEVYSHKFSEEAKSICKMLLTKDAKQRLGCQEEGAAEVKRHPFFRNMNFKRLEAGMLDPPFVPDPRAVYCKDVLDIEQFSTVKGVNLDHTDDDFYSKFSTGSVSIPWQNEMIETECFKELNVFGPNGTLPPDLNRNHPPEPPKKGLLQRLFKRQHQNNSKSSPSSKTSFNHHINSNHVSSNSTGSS

[41] = Genotoxicity in Salmonella typhimurium TA100 upto 100 uM in absence of S9 fraction by Ames test; type: toxicity; conditions: salmonella enterica subsp. enterica serovar typhimurium, s9, 100 µM
[42] = Stability in human microsomes assessed as half-life; type: ADME, Microsome

O=C(Nc1cc(Cl)cc(Cl)c1)Nc1nc2ccc([N+](=O)[O-])cc2s1
remaining at 1 h [1]: 71%
inhibition [2]: inactive
inhibition [3]: inactive
inhibition [4]: inactive
Tmax [5]: 1 h
inhibition [6]: inactive
Activity [7]: Non-Toxic
solubility [8]: 3 µM (≈ 1.15 µg/mL)
fold change (FC) (A498 [9]): ~4
AUC(0-inf) [10]: 8390 ng·h/mL
solubility [11]: 1.2 µM (≈ 0.46 µg/mL)
bioavailability [12]: 33%
inhibition [13]: inactive
Cmax [14]: 5.2 µM
inhibition [15]: inactive
inhibition [16]: inactive
inhibition [17]: inactive
inhibition [18]: inactive
IC50 (RCC4): 2000 nM
inhibition [19]: inactive
half-life [20]: 0.352 h
inhibition [21]: inactive
AUC(0-inf) [22]: 14200 ng·h/mL
inhibition [23]: Active
Activity [24]: Non-Toxic
half-life [25]: 2.7 h
IC50 [26]: 3000 nM
inhibition [27]: inactive
Activity (A498 [28]): Active
inhibition [29]: inactive
half-life [30]: > 4.82 h
IC50 (CAL-33): 4000 nM
Tmax [31]: 1.5 h
bioavailability [32]: 39%
inhibition at 5 µM (A498 [33]): > 75%
remaining at 2 h [34]: 85%
inhibition [35]: inactive
inhibition [36]: inactive
inhibition at 0.5 µM (A498 [37]): > 50%
inhibition [38]: inactive
Activity [39]: Non-Toxic
inhibition [40]: inactive
Activity [41]: Non-Toxic
half-life [42]: > 1 h
